This note sets out measurements from paper PMC7612312 (Nature chemical biology, 2019).

The assay relates to clathrin heavy chain (CHC; antibody recognises both CHC1 and CHC2). The assay can be described thus: CETSA. The format is biochemical, Arabidopsis thaliana.

Molecules are shown by their SMILES.

For the compound `O=S(=O)(Nc1ccccc1)c1ccc(Br)s1` [compound 14, ES9-17], a half-maximal response (EC50) required 123 ± 1.13 µM.
